Entries after “also recorded” stand apart in the source; their conditions may differ.
What was measured:
PD-L1 [1] = experiment: Flow cytometry of PD-L1 expression in LLC cells; type: cell-based, mouse; conditions: flow cytometry, 1, 2 and 5 mg/mL
Experimental: (§1) NCI-H157 or LLC cells in a 6-well plate were treated with low, medium, and high doses of ME-2 at 1, 2, and 5 mg/mL, respectively, for corresponding time, and the cells were stained with a fluorescent antibody. Fluorescence intensity was measured by flow cytometry.

[2] = tested on: LLC lung cancer transplanted tumor; experiment: Mouse lung cancer (LLC) transplanted tumor model
NCI-H157 cells [3] = experiment: CCK8 in vitro cytotoxicity assay, NCI-H157; type: cell-based; conditions: CCK8, gradient concentration, 24 h
Experimental: (§2) CCK8 was used to detect the cytotoxicity of ME-2 to NCI-H157 and LLC cells. H157 or LLC cells were inoculated overnight in 96-well cell culture plate at a concentration of 1×10^4/mL. The gradient concentration of ME-2 was prepared in the medium, and CCK8 solution was added into the 96-well cell culture plate after 24 h of action. OD values were measured at 450 nm by an enzyme-linked immunosorbent assay (ELISA) instrument.

PD-L1 [4] = experiment: Flow cytometry of PD-L1 expression in NCI-H157 cells; type: cell-based; conditions: flow cytometry, 1, 2 and 5 mg/mL
Experimental: as §1

PD-L1 [5] = experiment: Western blot of PD-L1 expression in mouse lung cancer LLC cells; type: cell-based; conditions: concentration and time gradient, most significant at 2 mg/mL, 24 h
Experimental: (§3) The tumor cells in question were non-small cell lung cancer NCI-H157, mouse lung cancer LLC, colon cancer SW620, human osteosarcoma U2OS, non-small cell lung cancer A549, liver cancer HepG-2, and breast cancer MCF-7. The total protein of the above cells was extracted; the protein concentration was determined by bicinchoninic acid (BCA) assay. The samples were loaded and subjected to sodium dodecyl sulfate (SDS) polyacrylamide gel electrophoresis (SDS-PAGE); the membrane was blocked and immunoreacted after transfer, and an enhanced chemiluminescence (ECL) solution was used for development. Picture processing and gray value analysis were performed on the exposure results on ImageJ software. According to the experimental results, the cell lines with high expression of PD-L1 were selected as follows: NCI-H157, LLC, U2OS, and SW620; and the cell lines with low or no expression of PD-L1 were A549, HepG-2, and MCF-7 (see FIGS. 3A and 3B).
Concentration and time gradient ME-2 were applied to act on four tumor cell lines with high expression of PD-L1, respectively. The Western blot method was used for detection, and the experimental method was shown above. […] The downregulation of tumor cell baseline PD-L1 was concentration dependent (see FIG. 5A) and time dependent (see FIG. 5B). […]

LLC cells = experiment: CCK8 in vitro cytotoxicity assay, LLC; type: cell-based, mouse; conditions: CCK8, gradient concentration, 24 h
Experimental: as §2

NCI-H157 cells [6] = experiment: Co-culture of H157 tumor cells with stimulated Jurkat T cells, crystal violet staining; type: cell-based; conditions: gradient dosing, co-culture 24 h
Experimental: In order to further evaluate the anti-tumor effect of ME-2 in the experiment of co-culture of tumor cells and T cells, H157 cells were inoculated into a 24-well culture plate, subjected to gradient dosing treatment for time needed, and co-cultured with stimulated Jurkat T cells for 24 h. The tumor survival was observed under a microscope after 4% polyformaldehyde fixation and crystal violet staining. The specific manifestation was the difference in the depth of staining in the different dosages and concentrations of ME-2.

PD-L1 [7] = experiment: Western blot of PD-L1 expression in tumor cells with high expression of PD-L1 (NCI-H157, U2OS, SW620); type: cell-based, human; conditions: concentration and time gradient, most significant at 2 mg/mL, 24 h
Experimental: as §3
Concentration and time gradient ME-2 were applied to act on four tumor cell lines with high expression of PD-L1, respectively. The Western blot method was used for detection, and the experimental method was shown above. […] The downregulation of tumor cell baseline PD-L1 was concentration dependent (see FIG. 5A) and time dependent (see FIG. 5B). The downregulation of PD-L1 was most significant when the dose concentration was 2 mg/mL and the administration time was 24 h.
A Western blot was used to detect the effects of Auricularia auricula total polysaccharide METP and Auricularia auricula deacetylated monomeric polysaccharide dME-2 on the expression of PD-L1 in H157 cells, and Auricularia auricula monomeric polysaccharide ME-2 was used as a positive control. The experimental procedure was described in Example 1.

PD-1 protein = PD-1 protein (Homo sapiens, UniProt Q15116); experiment: SPR affinity analysis with PD-1 protein; type: binding
PD-L1 and PD-1 protein = PD-L1 and PD-1 protein (Homo sapiens, UniProt Q9NZQ7); experiment: SPR competitive experiment between ME-2 and PD-1 for PD-L1; type: binding
Text: Biacore 8K high-throughput molecular interaction analysis system, CM5 chip, and phosphate buffered saline (PBS) buffer as the mobile phase of the instrument were used in the whole process of the surface plasmon resonance experiment. The PD-L1 was coupled to the activated CM5 chip using an amino coupling kit. […] The ME-2 polysaccharide solution with different concentrations was passed through the coupling channel and the blank channel at a certain velocity by using the running buffer. After 60 s of dissociation, the chip was regenerated with 10 mM glycine-HCl (pH2.0) and 3 M NaCl at a flow rate of […] for 30 s. Biacore Evaluation 3.1 software and GraphPad Prism 8.0 software were used to analyze the data and obtain the response curve.

PD-L1 protein = PD-L1 protein (Homo sapiens, UniProt Q9NZQ7); experiment: SPR affinity analysis with PD-L1 protein (Biacore 8K, CM5 chip); type: binding
Experimental: Biacore 8K high-throughput molecular interaction analysis system, CM5 chip, and phosphate buffered saline (PBS) buffer as the mobile phase of the instrument were used in the whole process of the surface plasmon resonance experiment. The PD-L1 was coupled to the activated CM5 chip using an amino coupling kit. […] After 60 s of dissociation, the chip was regenerated with 10 mM glycine-HCl (pH2.0) and 3 M NaCl at a flow rate of 30 L/min for 30 s. Biacore Evaluation 3.1 software and GraphPad Prism 8.0 software were used to analyze the data and obtain the response curve.

PD-L1/PD-1 interaction = biological target: T1, PD-L1/PD-1 interaction (Homo sapiens, UniProt Q9NZQ7); experiment: PD-1Fc binding to PD-L1 on NCI-H157 cells (flow cytometry and confocal); type: cell-based; conditions: 24 h of ME-2 treatment, human recombinant PD-1Fc, dose-dependent
T1 construct: NCI-H157 cells were inoculated on a 24-well cell culture plate; endogenous in cells; host or cells: NCI-H157
Experimental: NCI-H157 cells were inoculated on a 24-well cell culture plate and subjected to gradient dosing treatment for time needed after cell adhesion. The cells were fixed at room temperature with a 4% solution of paraformaldehyde. The cells were washed with PBS buffer several times. An appropriate amount of human recombinant PD-1Fc protein was added to the fixed cells and incubated for 1 h, and the cells were washed with PBS buffer several times. Anti-human IgG (Alexa Fluor 488) fluorescent secondary antibody was added and incubated for 30 min. After nuclear staining, a glycerol sealing layer was applied. Green fluorescence signals were observed under a fluorescence microscope and photographed for statistics, or the fluorescence intensity was measured by flow cytometry.

PD-L1 [8] = experiment: Western blot of IFN-γ-induced PD-L1 expression (A549, HepG-2, MCF-7); type: cell-based; conditions: ME-2 and IFN-γ co-acted on cells
Experimental: as §3
Interferon IFN-γ is an important factor in inducing PD-L1 expression in the tumor immune microenvironment. We used low-expression PD-L1 tumor cells (non-small cell lung cancer A549, liver cancer HepG-2, and breast cancer MCF-7). ME-2 and IFN-γ were co-acted on cells; their expression abundance was detected by the Western blot method, and the experimental method was shown above.

Chain of PD-L1 and PD-1 protein (Q9NZQ7 19-238 limits assumed, species assumed): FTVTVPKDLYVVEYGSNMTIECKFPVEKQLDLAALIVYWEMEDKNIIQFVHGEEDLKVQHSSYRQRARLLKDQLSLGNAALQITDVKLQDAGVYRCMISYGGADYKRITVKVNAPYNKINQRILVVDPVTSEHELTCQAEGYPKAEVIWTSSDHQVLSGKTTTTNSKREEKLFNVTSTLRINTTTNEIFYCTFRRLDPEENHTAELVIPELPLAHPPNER
T1 sequence (Q9NZQ7 19-290): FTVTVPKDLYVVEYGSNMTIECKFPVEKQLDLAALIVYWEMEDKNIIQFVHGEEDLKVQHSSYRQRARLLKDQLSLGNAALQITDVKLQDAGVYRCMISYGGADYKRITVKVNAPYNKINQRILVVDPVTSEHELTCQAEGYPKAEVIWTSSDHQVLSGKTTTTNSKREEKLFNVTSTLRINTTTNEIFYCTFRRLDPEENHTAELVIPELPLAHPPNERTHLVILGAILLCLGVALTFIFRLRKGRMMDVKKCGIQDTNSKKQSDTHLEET
Chain of PD-L1 protein (Q9NZQ7 19-290, species assumed): as the sequence (Q9NZQ7 19-290) above
Chain of PD-1 protein (Q15116 25-288): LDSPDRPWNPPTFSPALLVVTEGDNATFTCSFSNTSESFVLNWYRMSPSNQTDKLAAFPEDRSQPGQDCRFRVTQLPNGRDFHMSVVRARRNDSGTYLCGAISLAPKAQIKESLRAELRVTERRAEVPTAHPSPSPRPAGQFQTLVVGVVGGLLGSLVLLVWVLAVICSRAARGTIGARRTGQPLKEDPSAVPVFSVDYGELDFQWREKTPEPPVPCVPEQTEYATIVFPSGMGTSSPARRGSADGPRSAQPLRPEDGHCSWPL

Substance: high-acetyl glucuronoxylogalactoglucomannan [ME-2]
- PD-L1 fluorescence intensity in LLC cells (PD-L1 [1]): concentration dependent inhibition
- HE staining of vital organs of mice ([2]; ME-2 100 mg/kg): did not cause organic changes
- serum indexes of mice ([2]; ME-2 100 mg/kg): consistent with those of the control group
- tumor growth in model mice ([2]; ME-2 100 mg/kg, oral administration, 100 mg/kg): obvious better than a positive drug; also recorded: effectively inhibited
- toxic and side effects on mice ([2]; ME-2 at the dosage used (100 mg/kg)): no obvious toxic and side effects
- body weight of mice ([2]; ME-2 experiment, all groups): no significant difference
- PD-L1 mRNA level in mouse tumors ([2]; qPCR, ME-2 treated mice): significantly reduce
- cytotoxicity / proliferation of NCI-H157 cells (NCI-H157 cells [3]): no obvious cytotoxicity
- PD-L1 fluorescence intensity in NCI-H157 cells (PD-L1 [4]): concentration dependent inhibition
- abundance of PD-L1 in LLC cells (PD-L1 [5]): significantly down-regulated
- cytotoxicity / proliferation of LLC cells (LLC cells): no obvious cytotoxicity
- sensitivity of NCI-H157 cells to killing by Jurkat T cells (NCI-H157 cells [6]): more sensitive to the killing of Jurkat T cells
- abundance of PD-L1 in NCI-H157 cells (PD-L1 [7]): significantly down-regulated
- abundance of PD-L1 in SW620 cells (PD-L1 [7]): significantly down-regulated
- abundance of PD-L1 in U2OS cells (PD-L1 [7]): significantly down-regulated
- affinity to PD-1 protein (in words) (PD-1 protein): no affinity
- binding of PD-L1 and PD-1 protein with increasing concentration of ME-2 (PD-L1 and PD-1 protein): significantly inhibited
- affinity to PD-L1 protein (in words) (PD-L1 protein): strong affinity
- PD-1 binding to PD-L1 in NCI-H157 cells (PD-L1/PD-1 interaction): decreased
- IFN-γ-induced expression of PD-L1 in A549 cells (PD-L1 [8]): significantly down-regulated
- IFN-γ-induced expression of PD-L1 in HepG-2 cells (PD-L1 [8]): significantly down-regulated
- IFN-γ-induced expression of PD-L1 in MCF-7 cells (PD-L1 [8]): significantly down-regulated

— patent publication US20250049869A1, “USE OF AURICULARIA AURICULA TOTAL POLYSACCHARIDE OR MONOMERIC POLYSACCHARIDE IN PREPARATION OF PD-L1 INHIBITOR” (priority 2023, published 2025)
